Reference: ChEMBL document CHEMBL1201862, “PubChem BioAssay data set” (2004)
Where “and” joins values, the source holds several entries; their conditions need not be identical. Identical values can stand only once.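 Values below derive from 48-hour exposures of cells grown in 96-well plates, with endpoints linearly interpolated between the two concentrations bracketing the appropriate inhibition level. GI50 is the concentration that inhibits growth by half.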 Calls of active or inactive are those of the source. Rule as the data show it: active = GI50 up to about 1.1 µM and inactive = higher.

What was measured:
Test in all cases: NCI anticancer screen, dose series, 48 h
[1] = test system: 786-0
[2] = test system: A498
[3] = test system: A549
[4] = test system: ACHN
[5] = test system: CAKI-1
[6] = test system: CCRF-CEM
[7] = test system: COLO 205
[8] = test system: DLD-1
[9] = test system: DMS-114
[10] = test system: DMS-273
[11] = test system: HCC 2998
[12] = test system: HCT-116
[13] = test system: HCT-15
[14] = test system: HL-60
[15] = test system: HOP-18
[16] = test system: HOP-92
[17] = test system: HT-29
[18] = test system: IGROV-1
[19] = test system: K562
[20] = test system: KM-20L2
[21] = test system: KM12
[22] = test system: LOX IMVI
[23] = test system: LXFL 529
[24] = test system: M14
[25] = test system: M19-MEL
[26] = test system: MOLT-4
[27] = test system: Malme-3M
[28] = test system: NCI-H226
[29] = test system: NCI-H23
[30] = test system: NCI-H460
[31] = test system: NCI-H522
[32] = test system: OVCAR-3
[33] = test system: OVCAR-4
[34] = test system: OVCAR-5
[35] = test system: OVCAR-8
[36] = test system: RPMI-8226
[37] = test system: RXF 393
[38] = test system: SF-268
[39] = test system: SF-295
[40] = test system: SF-539
[41] = test system: SK-MEL-28
[42] = test system: SK-MEL-2
[43] = test system: SK-MEL-5
[44] = test system: SK-OV-3
[45] = test system: SN12C
[46] = test system: SNB-19
[47] = test system: SNB-75
[48] = test system: SNB-78
[49] = test system: SR
[50] = test system: SW-620
[51] = test system: TK-10
[52] = test system: U-251
[53] = test system: UACC-257
[54] = test system: UACC-62
[55] = test system: UO-31
[56] = test system: XF498
[57] = test system: EKVX
[58] = test system: HOP-62
[59] = test system: BT-549
[60] = test system: Hs-578T
[61] = test system: MDA-MB-435
[62] = test system: MDA-N
[63] = test system: NCI/ADR-RES
[64] = test system: PC-3

Structure (SMILES): O=C(O)CCc1cccc2c1oc1c(CCC(=O)O)cccc12
- GI50 [1]: > 100 µM (inactive)
- GI50 [2]: > 100 µM (inactive)
- GI50 [3]: > 100 µM (inactive)
- GI50 [4]: > 100 µM (inactive)
- GI50 [5]: > 100 µM (inactive)
- GI50 [6]: > 100 µM (inactive)
- GI50 [7]: > 100 µM (inactive)
- GI50 [8]: > 100 µM (inactive)
- GI50 [9]: > 100 µM (inactive)
- GI50 [10]: > 100 µM (inactive)
- GI50 [11]: > 100 µM (inactive)
- GI50 [12]: > 100 µM (inactive)
- GI50 [13]: > 100 µM
- GI50 [14]: > 100 µM (inactive)
- GI50 [15]: > 100 µM (inactive)
- GI50 [16]: > 100 µM (inactive)
- GI50 [17]: > 100 µM (inactive)
- GI50 [18]: > 100 µM (inactive)
- GI50 [19]: > 100 µM (inactive)
- GI50 [20]: > 100 µM (inactive)
- GI50 [21]: > 100 µM (inactive)
- GI50 [22]: > 100 µM (inactive)
- GI50 [23]: > 100 µM (inactive)
- GI50 [24]: > 100 µM (inactive)
- GI50 [25]: > 100 µM (inactive)
- GI50 [26]: > 100 µM (inactive)
- GI50 [27]: > 100 µM (inactive)
- GI50 [28]: > 100 µM (inactive)
- GI50 [29]: > 100 µM (inactive)
- GI50 [30]: > 100 µM (inactive)
- GI50 [31]: > 100 µM (inactive)
- GI50 [32]: > 100 µM (inactive)
- GI50 [33]: > 100 µM (inactive)
- GI50 [34]: > 100 µM (inactive)
- GI50 [35]: > 100 µM (inactive)
- GI50 [36]: > 100 µM (inactive)
- GI50 [37]: > 100 µM (inactive)
- GI50 [38]: > 100 µM (inactive)
- GI50 [39]: > 100 µM (inactive)
- GI50 [40]: > 100 µM (inactive)
- GI50 [41]: > 100 µM (inactive)
- GI50 [42]: > 100 µM (inactive)
- GI50 [43]: > 100 µM (inactive)
- GI50 [44]: > 100 µM (inactive)
- GI50 [45]: > 100 µM (inactive)
- GI50 [46]: > 100 µM (inactive)
- GI50 [47]: > 100 µM (inactive)
- GI50 [48]: 48.1 µM (inactive)
- GI50 [49]: > 100 µM (inactive)
- GI50 [50]: > 100 µM (inactive)
- GI50 [51]: > 100 µM (inactive)
- GI50 [52]: > 100 µM (inactive)
- GI50 [53]: > 100 µM (inactive)
- GI50 [54]: > 100 µM (inactive)
- GI50 [55]: > 100 µM (inactive)
- GI50 [56]: > 100 µM (inactive)

Structure (SMILES): N#CC(C(=O)C(=O)Nc1ccc(Cl)c(Cl)c1)c1ccc(Cl)cc1 (centres undefined)
- GI50 [1]: 41 µM (inactive)
- GI50 [2]: > 100 µM (inactive)
- GI50 [3]: 97.3 µM (inactive)
- GI50 [4]: 83 µM (inactive)
- GI50 [5]: > 100 µM (inactive)
- GI50 [6]: 48.1 µM (inactive)
- GI50 [7]: 45.1 µM (inactive)
- GI50 [8]: 44.1 µM (inactive)
- GI50 [9]: 22.9 µM (inactive)
- GI50 [10]: > 100 µM (inactive)
- GI50 [57]: > 100 µM (inactive)
- GI50 [11]: 51.9 µM (inactive)
- GI50 [12]: 23.6 µM (inactive)
- GI50 [13]: 32.5 µM
- GI50 [14]: 47.2 µM (inactive)
- GI50 [15]: 41 µM (inactive)
- GI50 [58]: > 100 µM (inactive)
- GI50 [16]: 36.4 µM (inactive)
- GI50 [17]: 69.2 µM (inactive)
- GI50 [18]: > 100 µM (inactive)
- GI50 [19]: 23.4 µM (inactive)
- GI50 [20]: > 100 µM (inactive)
- GI50 [21]: > 100 µM (inactive)
- GI50 [22]: 16.7 µM (inactive)
- GI50 [23]: 77.1 µM (inactive)
- GI50 [24]: > 100 µM (inactive)
- GI50 [26]: 64.7 µM (inactive)
- GI50 [27]: 97.3 µM (inactive)
- GI50 [28]: > 100 µM (inactive)
- GI50 [29]: > 100 µM (inactive)
- GI50 [30]: 32.1 µM (inactive)
- GI50 [31]: 25.2 µM (inactive)
- GI50 [32]: 37.7 µM (inactive)
- GI50 [34]: > 100 µM (inactive)
- GI50 [35]: > 100 µM (inactive)
- GI50 [36]: 35.2 µM (inactive)
- GI50 [37]: > 100 µM (inactive)
- GI50 [38]: > 100 µM (inactive)
- GI50 [39]: 87.9 µM (inactive)
- GI50 [40]: > 100 µM (inactive)
- GI50 [41]: > 100 µM (inactive)
- GI50 [42]: 34.2 µM (inactive)
- GI50 [43]: 74.8 µM (inactive)
- GI50 [44]: > 100 µM (inactive)
- GI50 [45]: 91 µM (inactive)
- GI50 [46]: 65.5 µM (inactive)
- GI50 [47]: > 100 µM (inactive)
- GI50 [48]: > 100 µM (inactive)
- GI50 [49]: 51.9 µM (inactive)
- GI50 [50]: 16 µM (inactive)
- GI50 [51]: > 100 µM (inactive)
- GI50 [52]: 40.8 µM (inactive)
- GI50 [53]: > 100 µM (inactive)
- GI50 [54]: 30.5 µM (inactive)
- GI50 [55]: 47.1 µM (inactive)
- GI50 [56]: 61 µM (inactive)

Structure (SMILES): COC1=C(N)C(=O)c2nc(-c3nc(C(=O)O)c(C)c(-c4ccc(OC)c(OC)c4O)c3N)ccc2C1=O [STREPTONIGRIN]
- GI50 [2]: 8.11 nM (active) and 12.6 nM (active)
- GI50 [3]: 0.00505 µM (active)
- GI50 [59]: 0.00526 µM (active)
- GI50 [6]: < 10 nM (active) and 6.01 nM (active)
- GI50 [8]: 0.0131 µM (active)
- GI50 [9]: < 0.01 µM (active)
- GI50 [10]: < 0.01 µM (active)
- GI50 [11]: 5.65 nM (active) and < 10.9 nM (active)
- GI50 [12]: 0.00619 µM (active)
- GI50 [15]: < 0.01 µM (active)
- GI50 [60]: < 0.01 µM (active)
- GI50 [20]: 10 nM (active) and 19 nM (active)
- GI50 [22]: 0.00581 µM (active)
- GI50 [23]: 0.01 µM (active)
- GI50 [25]: 0.01 µM (active)
- GI50 [61]: < 10 nM (active) and 8.59 nM (active)
- GI50 [62]: 0.00792 µM (active)
- GI50 [28]: < 10 nM (active) and 5.73 nM (active)
- GI50 [63]: 0.00893 µM (active)
- GI50 [64]: 0.0071 µM (active)
- GI50 [43]: < 10 nM (active) and 5.81 nM (active)
- GI50 [44]: 0.00826 µM (active)
- GI50 [45]: 0.00785 µM (active)
- GI50 [48]: 19.4 nM (active) and < 10 nM (active)
- GI50 [50]: 6.03 nM (active) and 10 nM (active)
- GI50 [53]: 7.87 nM (active) and < 10.7 nM (active)
- GI50 [56]: < 0.01 µM (active)
